Assay results: patent publication US20140234227A1, “FOAM FORMULATIONS” (OTIC PHARMA LTD, priority 2011, published 2014)
Structures can show the parent of a compound that is named as a salt.

How the values were obtained:
Assay in all cases: Antibiotics-Microbial Assay - Zone of Growth Inhibition
Format in all cases: cell-based
E. Coli (ATCC No. 8739) = settings: LB-agar, 24 hrs at 37° C.
Procedure: (§1) In this assay the diameter (halo) of bacterial growth inhibition around filters soaked with a test item was measured and compared to a standard solution of antibiotic. For this end, sterile Microbiological cotton swabs were soaked with cultures of E. Coli (ATCC No. 8739), S. aureus (ATCC No. 6538) or of Pseudomonas aeruginosa (ATCC No. 9027) and evenly spread on top of LB-agar plates. Filters soaked with the tested formulation were placed on top of the plates and the plates were further incubated for 24 hrs. The diameter (halo) of growth inhibition around each filter was measured after 24 hrs of incubation at 37° C. A solution that contained the same concentration of Ciprofloxacin Hydrochloride (0.35%) as in the formulation tested was used as a control.

[1] = system: Pseudomonas aeruginosa (ATCC No. 9027); settings: LB-agar, 24 hrs at 37° C.
Procedure: as §1

[2] = system: S. aureus (ATCC No. 6538); settings: Staph. Aureus, LB-agar, 24 hrs at 37° C.
Procedure: as §1

`O=C(O)c1cn(C2CC2)c2cc(N3CCNCC3)c(F)cc2c1=O` [Ciprofloxacin HCl solution (0.35%), monohydrochloride monohydrate salt of 1-cyclopropyl-6-fluoro-1,4-dihydro-4-oxo-7-(1-piperazinyl)-3-quinolinecarboxylic acid] was tested, and the “diameter of growth inhibition” value (E. Coli (ATCC No. 8739)) was 3.6 cm, the “diameter of growth inhibition” value [1] was 4.85 cm and the “diameter of growth inhibition” value [2] was 4.7 cm.
